The text below walks through data of patent US8822517B2, “Arylosulfonamides for the treatment of CNS diseases” (Adamed SP. Z O.O., priority 2010, dated 2014).

The target of assay [1] is T1, serotonine transporter (SERT) receptor (Homo sapiens, UniProt P31645).
T1 construct: expressed in transfected cells; host or cells: CHO cells
Put plainly: Binding assay SERT (h), [3H]imipramine, CHO cells. The note with it: read-out: SERT [%]. In outline:
(§1)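 Detection relied on scintillation counting of bound ligand. Compounds at 1×10^−6 M were evaluated against specific binding, i.e. total binding corrected for the nonspecific fraction seen with excess unlabelled ligand.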

In a further assay the test system is adrenergic α1 receptor. Put plainly: Binding assay α1 (non-selective), [3H]prazosin, rat cerebral cortex. Conditions: percent inhibition of control specific binding; compounds tested at 1×10^−6 M. The essentials: as §1
In assay [2] the target is T2, serotoninergic 5-HT1A receptor (Homo sapiens, UniProt P08908).
T2 sequence (P08908 1-422): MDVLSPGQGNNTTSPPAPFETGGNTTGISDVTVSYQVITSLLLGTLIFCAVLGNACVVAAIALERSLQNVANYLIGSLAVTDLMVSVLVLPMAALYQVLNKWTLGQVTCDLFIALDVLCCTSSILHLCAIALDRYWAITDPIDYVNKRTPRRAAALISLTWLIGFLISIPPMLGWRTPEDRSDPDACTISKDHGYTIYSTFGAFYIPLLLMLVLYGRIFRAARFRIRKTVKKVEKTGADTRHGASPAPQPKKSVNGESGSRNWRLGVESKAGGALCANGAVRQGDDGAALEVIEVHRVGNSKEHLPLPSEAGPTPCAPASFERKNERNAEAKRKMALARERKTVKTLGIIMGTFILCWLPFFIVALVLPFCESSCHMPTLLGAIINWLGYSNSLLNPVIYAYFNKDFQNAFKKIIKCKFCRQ
Put plainly: Binding assay 5-HT1A (h), [3H]8-OH-DPAT, HEK-293 cells. More on the design: expressed in transfected cells; host or cells: HEK-293 cells. The note with it: read-out: 5-HT1A. The essentials: as §1

A further assay concerns the target dopaminergic D3 receptor (Homo sapiens, UniProt P35462). Put plainly: Binding assay D3 (h), [3H]methyl-spiperone, CHO cells. More on the design: expressed in transfected cells; host or cells: CHO cells. Conditions: read-out: D3 [%]. The essentials: as §1
A further assay addresses dopaminergic D2 receptor (Homo sapiens, UniProt P14416). Put plainly: Binding assay D2S (h), [3H]methyl-spiperone, HEK-293 cells. The note with it: read-out: D2 [%]. Further details: expressed in transfected cells; host or cells: HEK-293 cells. In outline: as §1
Assay [3] deals with serotoninergic 5-HT6 receptor (Homo sapiens, UniProt P50406). Put plainly: Binding assay 5-HT6 (h), [3H]LSD, CHO cells. Further details: expressed in transfected cells; host or cells: CHO cells. Conditions: read-out: 5-HT6. In outline:
as §1

Assay [4] deals with serotoninergic 5-HT2A receptor (Homo sapiens, UniProt P28223). Put plainly: Binding assay 5-HT2A (h), [3H]ketanserin, HEK-293 cells. More on the design: expressed in transfected cells; host or cells: HEK-293 cells. Conditions: read-out: 5-HT2A. In outline:
as §1

Assay [5] has as its target serotoninergic 5-HT7 receptor (Homo sapiens, UniProt P34969). Put plainly: Binding assay 5-HT7 (h), [3H]LSD, CHO cells. More on the design: expressed in transfected cells; host or cells: CHO cells. Conditions: read-out: 5-HT7. The essentials:
as §1

Sequence of serotoninergic 5-HT6 receptor (P50406 whole entry): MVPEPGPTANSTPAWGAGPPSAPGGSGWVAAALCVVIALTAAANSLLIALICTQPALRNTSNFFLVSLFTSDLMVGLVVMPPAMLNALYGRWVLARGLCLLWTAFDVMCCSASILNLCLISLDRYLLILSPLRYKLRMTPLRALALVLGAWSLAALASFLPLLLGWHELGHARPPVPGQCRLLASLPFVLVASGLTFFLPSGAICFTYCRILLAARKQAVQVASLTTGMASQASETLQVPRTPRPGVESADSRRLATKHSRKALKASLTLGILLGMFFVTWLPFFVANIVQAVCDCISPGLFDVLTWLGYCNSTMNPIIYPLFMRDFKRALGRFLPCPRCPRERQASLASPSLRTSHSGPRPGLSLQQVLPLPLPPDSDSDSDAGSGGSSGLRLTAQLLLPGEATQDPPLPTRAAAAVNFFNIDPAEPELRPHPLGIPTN
Sequence of dopaminergic D3 receptor (P35462 whole entry): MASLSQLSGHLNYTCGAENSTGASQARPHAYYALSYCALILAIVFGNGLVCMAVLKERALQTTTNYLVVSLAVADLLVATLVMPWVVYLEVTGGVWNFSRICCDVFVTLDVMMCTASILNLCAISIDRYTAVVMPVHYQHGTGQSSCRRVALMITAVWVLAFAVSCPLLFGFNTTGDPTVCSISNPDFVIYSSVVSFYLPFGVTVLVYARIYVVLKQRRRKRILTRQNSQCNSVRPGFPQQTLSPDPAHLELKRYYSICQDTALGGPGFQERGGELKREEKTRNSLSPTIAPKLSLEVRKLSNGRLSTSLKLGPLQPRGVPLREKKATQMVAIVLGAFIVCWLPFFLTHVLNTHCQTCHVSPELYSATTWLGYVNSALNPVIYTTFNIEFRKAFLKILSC
Sequence of serotoninergic 5-HT2A receptor (P28223 whole entry): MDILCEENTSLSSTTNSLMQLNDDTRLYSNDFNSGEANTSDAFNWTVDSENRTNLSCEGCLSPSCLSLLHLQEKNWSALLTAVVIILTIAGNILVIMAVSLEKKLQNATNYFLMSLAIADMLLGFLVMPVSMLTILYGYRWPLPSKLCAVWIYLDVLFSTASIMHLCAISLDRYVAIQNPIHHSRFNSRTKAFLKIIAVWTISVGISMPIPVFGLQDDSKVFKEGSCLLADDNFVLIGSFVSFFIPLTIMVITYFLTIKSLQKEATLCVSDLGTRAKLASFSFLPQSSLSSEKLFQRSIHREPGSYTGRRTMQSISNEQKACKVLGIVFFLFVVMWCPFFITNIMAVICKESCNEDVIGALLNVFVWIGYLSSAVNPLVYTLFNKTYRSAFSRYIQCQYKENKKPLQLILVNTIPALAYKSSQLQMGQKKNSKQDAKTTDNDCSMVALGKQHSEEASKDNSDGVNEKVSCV
Sequence of serotoninergic 5-HT7 receptor (P34969 whole entry): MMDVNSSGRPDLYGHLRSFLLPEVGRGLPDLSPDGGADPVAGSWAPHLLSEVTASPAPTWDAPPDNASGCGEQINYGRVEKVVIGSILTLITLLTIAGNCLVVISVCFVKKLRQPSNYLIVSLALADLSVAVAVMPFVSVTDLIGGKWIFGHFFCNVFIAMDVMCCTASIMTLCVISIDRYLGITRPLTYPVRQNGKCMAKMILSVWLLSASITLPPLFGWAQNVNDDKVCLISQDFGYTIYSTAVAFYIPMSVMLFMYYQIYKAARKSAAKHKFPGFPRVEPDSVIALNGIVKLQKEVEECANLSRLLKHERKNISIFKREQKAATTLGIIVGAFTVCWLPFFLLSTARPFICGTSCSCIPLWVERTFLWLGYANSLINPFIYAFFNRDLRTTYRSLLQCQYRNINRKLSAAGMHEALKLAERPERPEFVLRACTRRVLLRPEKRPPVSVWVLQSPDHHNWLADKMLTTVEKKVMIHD
Sequence of dopaminergic D2 receptor (P14416 1-414 isoform P14416-2): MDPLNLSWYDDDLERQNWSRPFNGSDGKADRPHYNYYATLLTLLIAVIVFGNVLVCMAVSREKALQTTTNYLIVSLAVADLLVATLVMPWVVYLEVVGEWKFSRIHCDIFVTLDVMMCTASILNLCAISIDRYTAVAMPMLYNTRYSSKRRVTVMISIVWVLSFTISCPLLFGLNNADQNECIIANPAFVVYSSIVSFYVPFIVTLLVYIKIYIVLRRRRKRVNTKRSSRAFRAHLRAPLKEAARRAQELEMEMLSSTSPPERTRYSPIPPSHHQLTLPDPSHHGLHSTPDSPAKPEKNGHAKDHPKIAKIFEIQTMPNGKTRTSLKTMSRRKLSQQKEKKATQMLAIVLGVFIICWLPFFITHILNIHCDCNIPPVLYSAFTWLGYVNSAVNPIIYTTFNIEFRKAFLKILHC
T1 sequence (P31645 whole entry): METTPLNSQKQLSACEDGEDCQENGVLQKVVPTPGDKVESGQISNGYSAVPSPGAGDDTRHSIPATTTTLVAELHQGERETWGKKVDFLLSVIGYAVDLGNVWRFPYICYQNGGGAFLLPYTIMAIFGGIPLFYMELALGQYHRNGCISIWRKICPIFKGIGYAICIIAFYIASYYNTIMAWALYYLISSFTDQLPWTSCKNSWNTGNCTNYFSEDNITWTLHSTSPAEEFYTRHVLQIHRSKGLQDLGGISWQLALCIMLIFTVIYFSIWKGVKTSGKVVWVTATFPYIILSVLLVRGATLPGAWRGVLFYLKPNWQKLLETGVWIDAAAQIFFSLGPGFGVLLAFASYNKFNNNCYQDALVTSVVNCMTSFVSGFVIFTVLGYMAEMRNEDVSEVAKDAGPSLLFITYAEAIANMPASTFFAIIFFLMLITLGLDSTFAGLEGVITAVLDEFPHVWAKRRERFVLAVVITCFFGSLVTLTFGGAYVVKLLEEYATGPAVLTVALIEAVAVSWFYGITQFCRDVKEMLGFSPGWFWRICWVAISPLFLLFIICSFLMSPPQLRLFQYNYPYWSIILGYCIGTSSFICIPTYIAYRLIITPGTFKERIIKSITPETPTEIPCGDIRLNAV

Regarding `O=S(=O)(NCCCCN1CCN(c2noc3ccccc23)CC1)c1ccc2c(c1)CCO2` [Compound 289, N-[4-[4-(1,2-Benzoxazol-3-yl)piperazin-1-yl]butyl]-2,3-dihydrobenzofuran-5-sulphonamide], the inhibition at 1 µM in assay [1] is 9%; in assay [2] it was 68%; at dopaminergic D3 receptor, 79%; at dopaminergic D2 receptor it was 99%; in assay [3], 78%; in assay [4], 94%. Further, the inhibition at 1 µM in assay [5] is 91%. Further, the “α1 [%]” value in the assay with adrenergic α1 receptor is 100%.

As for `O=S(=O)(NCCCN1CCC(c2noc3cc(F)ccc23)CC1)c1ccc(OC(F)(F)F)cc1` [Compound 336, N-[3-[4-(6-Fluoro-1,2-benzoxazol-3-yl)piperidin-1-yl]propyl]-4-(trifluoromethoxy)-benzenesulphonamide], the inhibition at 1 µM in assay [1] turned out to be 41%; in assay [2] it was 61%; at dopaminergic D3 receptor, 96%; on dopaminergic D2 receptor, 97%; in assay [3], 92%; in assay [4] it was 100%. In assay [5], the inhibition at 1 µM is 92%. Moreover, the “α1 [%]” value in the assay with adrenergic α1 receptor came out at 107%.

As to `O=S(=O)(NCCCCN1CCC(c2noc3cc(F)ccc23)CC1)c1cccc(F)c1` [Compound 107, 3-Fluoro-N-[4-[4-(6-fluoro-1,2-benzoxazol-3-yl)piperidin-1-yl]butyl]benzenesulphonamide], the inhibition at 1 µM is -12% in assay [1]; 38% in assay [2]; 97% at dopaminergic D3 receptor; 104% at dopaminergic D2 receptor; 75% in assay [3]; 95% in assay [4]. The inhibition at 1 µM in assay [5] stood at 91%. Further, the “α1 [%]” value in the assay on adrenergic α1 receptor was 100%.

For the compound `O=S(=O)(NCCCCN1CCN(c2cccc3c2OCCO3)CC1)c1ccc(-c2ccccc2)cc1` [Compound 396, N-[4-[4-(2,3-Dihydro-1,4-benzodioxin-5-yl)piperazin-1-yl]butyl]-4-phenylbenzenesulphonamide], the inhibition at 1 µM in assay [1] was determined as 16%; in assay [2], 85%; at dopaminergic D3 receptor, 86%; on dopaminergic D2 receptor, 68%; in assay [3], 31%; in assay [4], 58%. For the same compound, the inhibition at 1 µM in assay [5] stood at 88%. For the same compound, the “α1 [%]” value in the assay with adrenergic α1 receptor is recorded as 84%.

For `Cn1ccc2cc(S(=O)(=O)NCCCN3CCC(c4noc5cc(F)ccc45)CC3)ccc21` [Compound 344, N-[3-[4-(6-Fluoro-1,2-benzoxazol-3-yl)piperidin-1-yl]propyl]-1-methyl-indole-5-sulphonamide], the inhibition at 1 µM in assay [1] worked out at 31%; in assay [2], 42%; on dopaminergic D3 receptor it was 101%; at dopaminergic D2 receptor, 107%; in assay [3] it was 91%; in assay [4], 105%. For the same compound, in assay [5], the inhibition at 1 µM worked out at 95%. Moreover, the “α1 [%]” value in the assay with adrenergic α1 receptor came to 106%.

Regarding `O=S(=O)(NCCCCN1CCN(c2cccc3c2OCCO3)CC1)c1cc2ccccc2s1` [Compound 399, N-[4-[4-(2,3-Dihydro-1,4-benzodioxin-5-yl)piperazin-1-yl]butyl]benzothiophene-2-sulphonamide], the inhibition at 1 µM in assay [1] is -22%; in assay [2], 99%; on dopaminergic D3 receptor, 92%; on dopaminergic D2 receptor, 79%; in assay [3] it was 23%; in assay [4] it was 82%. Moreover, the inhibition at 1 µM in assay [5] was 96%. In addition, the “α1 [%]” value in the assay with adrenergic α1 receptor is 99%.

Take `O=S(=O)(NCCCCN1CCN(c2noc3ccccc23)CC1)c1cccc(F)c1` [Compound 87, N-[4-[4-(1,2-Benzoxazol-3-yl)piperazin-1-yl]butyl]-3-fluorobenzenesulphonamide]: the inhibition at 1 µM in assay [1] stood at 2%; in assay [2] it was 41%; at dopaminergic D3 receptor, 77%; at dopaminergic D2 receptor, 87%; in assay [3] it was 67%; in assay [4], 89%. Moreover, in assay [5], the inhibition at 1 µM stood at 90%. Moreover, the “α1 [%]” value in the assay on adrenergic α1 receptor is on record as 98%.

Regarding `O=S(=O)(NCCCCN1CCC(c2noc3cc(F)ccc23)CC1)c1ccc(C(F)(F)F)cc1` [Compound 302, N-[4-[4-(6-Fluoro-1,2-benzoxazol-3-yl)piperidin-1-yl]butyl]-4-(trifluoromethyl)benzenesulphonamide], the inhibition at 1 µM in assay [1] was found to be 19%; in assay [2], 50%; at dopaminergic D3 receptor it was 99%; at dopaminergic D2 receptor, 90%; in assay [3] it was 72%; in assay [4], 95%. For the same compound, the inhibition at 1 µM in assay [5] turned out to be 101%. Moreover, the “α1 [%]” value with adrenergic α1 receptor stood at 100%.

Take `O=S(=O)(NCCCCN1CCC(c2noc3cc(F)ccc23)CC1)c1cccc(Cl)c1` [Compound 105, 3-Chloro-N-[4-[4-(6-fluoro-1,2-benzoxazol-3-yl)piperidin-1-yl]butyl]benzenesulphonamide]: the inhibition at 1 µM in assay [1] is -11%; in assay [2], 41%; at dopaminergic D3 receptor, 88%; on dopaminergic D2 receptor it was 107%; in assay [3], 87%; in assay [4], 91%. Besides, the inhibition at 1 µM in assay [5] was determined as 85%. Further, in the assay with adrenergic α1 receptor, the “α1 [%]” value amounted to 96%.

In the case of `O=C1COc2c(cccc2N2CCN(CCCCNS(=O)(=O)c3cccc(C(F)(F)F)c3)CC2)N1` [Compound 430, N-[4-[4-(3-oxo-4H-1,4-benzoxazin-8-yl)piperazin-1-yl]butyl]-3-(trifluoromethyl)benzenesulphonamide], the inhibition at 1 µM came to 19% in assay [1]; 86% in assay [2]; 101% on dopaminergic D3 receptor; 69% at dopaminergic D2 receptor; 94% in assay [3]; 87% in assay [4]. The inhibition at 1 µM in assay [5] was 84%. Also, the “α1 [%]” value in the assay with adrenergic α1 receptor came out at 46%.

As for `O=S(=O)(NCCCN1CCN(c2nsc3ccccc23)CC1)c1cccc(O)c1` [Compound 254, N-[3-[4-(1,2-Benzothiazol-3-yl)piperazin-1-yl]propyl]-3-hydroxybenzenesulphonamide], the inhibition at 1 µM came out at 9% in assay [1]; 94% in assay [2]; 98% at dopaminergic D3 receptor; 87% on dopaminergic D2 receptor; 76% in assay [3]; 90% in assay [4]. Besides, in assay [5], the inhibition at 1 µM is 93%. Also, the “α1 [%]” value in the assay with adrenergic α1 receptor is on record as 96%.

For `O=S(=O)(NCCCCN1CCC(c2noc3cc(F)ccc23)CC1)c1cnc2ccccn12` [Compound 322, N-[4-[4-(6-Fluoro-1,2-benzoxazol-3-yl)piperidin-1-yl]butyl]imidazo[1,2-a]pyridine-3-sulphonamide], the inhibition at 1 µM in assay [1] is 16%; in assay [2], 43%; at dopaminergic D3 receptor, 93%; on dopaminergic D2 receptor, 96%; in assay [3], 62%; in assay [4], 94%. Also, the inhibition at 1 µM in assay [5] came to 95%. Besides, the “α1 [%]” value in the assay with adrenergic α1 receptor stood at 103%.
